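Interpolation was linear, between the two tested concentrations surrounding the appropriate level; five concentrations were tested over 48 hours in 96-well plates. Abbreviation: GI50, concentration required for 50% inhibition of growth. At the TGI there is no net growth.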
Legend:
Test in all cases: NCI-60 cell line screen, 48 h
SNB-75 CNS = system: SNB-75 CNS
CCRF-CEM leukemia = system: CCRF-CEM leukemia
786-0 renal = system: 786-0 renal
HCC-2998 colon = system: HCC-2998 colon
HS 578T breast = system: HS 578T breast
MDA-MB-435 = system: MDA-MB-435
SNB-19 CNS = system: SNB-19 CNS
CAKI-1 renal = system: CAKI-1 renal
IGROV1 ovarian = system: IGROV1 ovarian
NCI-H460 lung = system: NCI-H460 lung
NCI-H226 lung = system: NCI-H226 lung
K-562 leukemia = system: K-562 leukemia
HOP-62 NSCLC = system: HOP-62 NSCLC
HCT-15 colon = system: HCT-15 colon
OVCAR-5 ovarian = system: OVCAR-5 ovarian
MCF7 breast = system: MCF7 breast
OVCAR-4 ovarian = system: OVCAR-4 ovarian
EKVX NSCLC = system: EKVX NSCLC
MOLT-4 leukemia = system: MOLT-4 leukemia
UO-31 renal = system: UO-31 renal
UACC-257 melanoma = system: UACC-257 melanoma
HT29 colon = system: HT29 colon
SK-MEL-5 melanoma = system: SK-MEL-5 melanoma
OVCAR-8 ovarian = system: OVCAR-8 ovarian
T-47D breast = system: T-47D breast
SK-MEL-2 melanoma = system: SK-MEL-2 melanoma
M14 melanoma = system: M14 melanoma
PC-3 prostate = system: PC-3 prostate
KM12 colon = system: KM12 colon
NCI-H522 lung = system: NCI-H522 lung
COLO 205 colon = system: COLO 205 colon
SF-539 CNS = system: SF-539 CNS
SK-OV-3 ovarian = system: SK-OV-3 ovarian
RPMI-8226 leukemia = system: RPMI-8226 leukemia
SW-620 colon = system: SW-620 colon
SF-295 CNS = system: SF-295 CNS
NCI-H23 lung = system: NCI-H23 lung
SF-268 CNS = system: SF-268 CNS
A498 renal = system: A498 renal
DU-145 prostate = system: DU-145 prostate
SR leukemia = system: SR leukemia
UACC-62 melanoma = system: UACC-62 melanoma
MDA-MB-231 breast = system: MDA-MB-231 breast
A549 NSCLC = system: A549 NSCLC
NCI/ADR-RES ovarian = system: NCI/ADR-RES ovarian
HOP-92 NSCLC = system: HOP-92 NSCLC
MALME-3M melanoma = system: MALME-3M melanoma
U251 CNS = system: U251 CNS
TK-10 renal = system: TK-10 renal
SN12C renal = system: SN12C renal
OVCAR-3 ovarian = system: OVCAR-3 ovarian
SK-MEL-28 melanoma = system: SK-MEL-28 melanoma

`C#C[C@]1(O)CC[C@H]2[C@@H]3CC=C4c5sc(Nc6ccccc6)nc5CC[C@]4(C)[C@H]3CC[C@@]21C` was tested, and the GI50 (SNB-75 CNS) was 0.858 µM, the TGI (SNB-75 CNS) was 7.41 µM and the GI50 (CCRF-CEM leukemia) was 1.1 µM. For the same molecule, the TGI (CCRF-CEM leukemia) was 11.3 µM, the GI50 (786-0 renal) was 0.655 µM and the TGI (786-0 renal) was 2.12 µM. It also gave a GI50 (HCC-2998 colon) of 1.91 µM, a TGI (HCC-2998 colon) of 4.22 µM and a GI50 (HS 578T breast) of 0.504 µM. The TGI (HS 578T breast) was 5.23 µM, the GI50 (MDA-MB-435) was 3 µM and the TGI (MDA-MB-435) was 11.2 µM. The GI50 (SNB-19 CNS) was 1.99 µM, the TGI (SNB-19 CNS) was 7.16 µM and the GI50 (CAKI-1 renal) was 1.64 µM. For the same molecule, the TGI (CAKI-1 renal) was 4.41 µM, the GI50 (IGROV1 ovarian) was 2.06 µM and the TGI (IGROV1 ovarian) was 5.5 µM. The GI50 (NCI-H460 lung) was 2.4 µM, the TGI (NCI-H460 lung) was 6.4 µM and the GI50 (NCI-H226 lung) was 2.55 µM. For the same molecule, the TGI (NCI-H226 lung) was 7.59 µM, the GI50 (K-562 leukemia) was 1.86 µM and the TGI (K-562 leukemia) was > 100 µM. For the same molecule, the GI50 (HOP-62 NSCLC) was 2.19 µM, the TGI (HOP-62 NSCLC) was 10.7 µM and the GI50 (HCT-15 colon) was 1.69 µM. It also gave a TGI (HCT-15 colon) of 6.47 µM, a GI50 (OVCAR-5 ovarian) of 2.44 µM and a TGI (OVCAR-5 ovarian) of 9.68 µM. The GI50 (MCF7 breast) was 1.57 µM, the TGI (MCF7 breast) was 4.28 µM and the GI50 (OVCAR-4 ovarian) was 3.14 µM. It also gave a TGI (OVCAR-4 ovarian) of 65.6 µM, a GI50 (EKVX NSCLC) of 2.83 µM and a TGI (EKVX NSCLC) of 13.8 µM. For the same molecule, the GI50 (MOLT-4 leukemia) was 0.577 µM, the TGI (MOLT-4 leukemia) was 12.4 µM and the GI50 (UO-31 renal) was 1.43 µM. The TGI (UO-31 renal) was 2.91 µM, the GI50 (UACC-257 melanoma) was 2.46 µM and the TGI (UACC-257 melanoma) was 8.6 µM. The GI50 (HT29 colon) was 1.81 µM, the TGI (HT29 colon) was 6.68 µM and the GI50 (SK-MEL-5 melanoma) was 1.72 µM. For the same molecule, the TGI (SK-MEL-5 melanoma) was 3.26 µM, the GI50 (OVCAR-8 ovarian) was 2.71 µM and the TGI (OVCAR-8 ovarian) was 26.8 µM. It also gave a GI50 (T-47D breast) of 2.05 µM, a TGI (T-47D breast) of 6.94 µM and a GI50 (SK-MEL-2 melanoma) of 1.61 µM. It also gave a TGI (SK-MEL-2 melanoma) of 5.75 µM, a GI50 (M14 melanoma) of 1.6 µM and a TGI (M14 melanoma) of 4.51 µM. The GI50 (PC-3 prostate) was 1.22 µM, the TGI (PC-3 prostate) was 43.5 µM and the GI50 (KM12 colon) was 2.66 µM. The TGI (KM12 colon) was 12.7 µM, the GI50 (NCI-H522 lung) was 2.27 µM and the TGI (NCI-H522 lung) was 6.26 µM. For the same molecule, the GI50 (COLO 205 colon) was 2.18 µM, the TGI (COLO 205 colon) was 5.39 µM and the GI50 (SF-539 CNS) was 0.37 µM. It also gave a TGI (SF-539 CNS) of 1.52 µM, a GI50 (SK-OV-3 ovarian) of 2.37 µM and a TGI (SK-OV-3 ovarian) of 10.6 µM. It also gave a GI50 (RPMI-8226 leukemia) of 0.309 µM, a TGI (RPMI-8226 leukemia) of 1.6 µM and a GI50 (SW-620 colon) of 2.06 µM. For the same molecule, the TGI (SW-620 colon) was 5.85 µM, the GI50 (SF-295 CNS) was 0.244 µM and the TGI (SF-295 CNS) was 0.649 µM. For the same molecule, the GI50 (NCI-H23 lung) was 2.37 µM, the TGI (NCI-H23 lung) was 13.1 µM and the GI50 (SF-268 CNS) was 2.19 µM. For the same molecule, the TGI (SF-268 CNS) was 10.1 µM, the GI50 (A498 renal) was 1.34 µM and the TGI (A498 renal) was 3.66 µM. It also gave a GI50 (DU-145 prostate) of 1.87 µM, a TGI (DU-145 prostate) of 4.71 µM and a GI50 (SR leukemia) of 0.623 µM. The TGI (SR leukemia) was > 100 µM, the GI50 (UACC-62 melanoma) was 2.13 µM and the TGI (UACC-62 melanoma) was 6.44 µM. The GI50 (MDA-MB-231 breast) was 2.01 µM, the TGI (MDA-MB-231 breast) was 6.8 µM and the GI50 (A549 NSCLC) was 3.48 µM. The TGI (A549 NSCLC) was 24.9 µM, the GI50 (NCI/ADR-RES ovarian) was 2.15 µM and the TGI (NCI/ADR-RES ovarian) was > 100 µM. For the same molecule, the GI50 (HOP-92 NSCLC) was 3.81 µM, the TGI (HOP-92 NSCLC) was 29.7 µM and the GI50 (MALME-3M melanoma) was 1.31 µM. For the same molecule, the TGI (MALME-3M melanoma) was 3.79 µM, the GI50 (U251 CNS) was 0.886 µM and the TGI (U251 CNS) was 3.18 µM. It also gave a GI50 (TK-10 renal) of 3.79 µM, a TGI (TK-10 renal) of 13.2 µM and a GI50 (SN12C renal) of 2.86 µM. For the same molecule, the TGI (SN12C renal) was 11.1 µM, the GI50 (OVCAR-3 ovarian) was 1.89 µM and the TGI (OVCAR-3 ovarian) was 5.34 µM. The GI50 (SK-MEL-28 melanoma) was 0.692 µM and the TGI (SK-MEL-28 melanoma) was 2.75 µM.

Reference: PubChem BioAssay (NCI)
